# According to ChEMBL document CHEMBL1201862, “PubChem BioAssay data set” (2004):
#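 Values below derive from 48-hour exposures of cells grown in 96-well plates, with endpoints linearly interpolated between the two concentrations bracketing the appropriate inhibition level. GI50: concentration for 50% inhibition of growth.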 The source made the active and inactive calls. Cut-off read from the data, not from the text of the source: active = GI50 up to about 1.1 µM and inactive = higher.
# Experiments:
# Experiment in all cases: DTP human tumour cell line panel, 48 h
# 786-0 = tested on: 786-0
# A498 = tested on: A498
# A549 = tested on: A549
# ACHN = tested on: ACHN
# BT-549 = tested on: BT-549
# CAKI-1 = tested on: CAKI-1
# CCRF-CEM = tested on: CCRF-CEM
# COLO 205 = tested on: COLO 205
# DU-145 = tested on: DU-145
# EKVX = tested on: EKVX
# HCC 2998 = tested on: HCC 2998
# HCT-116 = tested on: HCT-116
# HCT-15 = tested on: HCT-15
# HL-60 = tested on: HL-60
# HOP-62 = tested on: HOP-62
# HT-29 = tested on: HT-29
# Hs-578T = tested on: Hs-578T
# K562 = tested on: K562
# KM12 = tested on: KM12
# LOX IMVI = tested on: LOX IMVI
# M14 = tested on: M14
# MDA-MB-231 = tested on: MDA-MB-231
# MDA-MB-435 = tested on: MDA-MB-435
# MDA-N = tested on: MDA-N
# MOLT-4 = tested on: MOLT-4
# Malme-3M = tested on: Malme-3M
# NCI-H226 = tested on: NCI-H226
# NCI-H23 = tested on: NCI-H23
# NCI-H460 = tested on: NCI-H460
# NCI-H522 = tested on: NCI-H522
# NCI/ADR-RES = tested on: NCI/ADR-RES
# OVCAR-3 = tested on: OVCAR-3
# OVCAR-4 = tested on: OVCAR-4
# OVCAR-5 = tested on: OVCAR-5
# OVCAR-8 = tested on: OVCAR-8
# PC-3 = tested on: PC-3
# RPMI-8226 = tested on: RPMI-8226
# RXF 393 = tested on: RXF 393
# SF-268 = tested on: SF-268
# SF-295 = tested on: SF-295
# SF-539 = tested on: SF-539
# SK-MEL-28 = tested on: SK-MEL-28
# SK-MEL-5 = tested on: SK-MEL-5
# SK-OV-3 = tested on: SK-OV-3
# SN12C = tested on: SN12C
# SNB-19 = tested on: SNB-19
# SNB-75 = tested on: SNB-75
# SR = tested on: SR
# SW-620 = tested on: SW-620
# T47D = tested on: T47D
# TK-10 = tested on: TK-10
# U-251 = tested on: U-251
# UACC-257 = tested on: UACC-257
# UACC-62 = tested on: UACC-62
# UO-31 = tested on: UO-31
# HOP-92 = tested on: HOP-92
# IGROV-1 = tested on: IGROV-1
# MCF7 = tested on: MCF7
# SK-MEL-2 = tested on: SK-MEL-2
smiles,measurement,setting,value
Cn1c(=O)c2[nH]c(/N=N\n3ccc4ccccc43)nc2n(C)c1=O,GI50,786-0,> 100 µM (inactive)
same,GI50,A498,> 100 µM (inactive)
same,GI50,A549,> 100 µM (inactive)
same,GI50,ACHN,> 100 µM (inactive)
same,GI50,BT-549,> 100 µM (inactive)
same,GI50,CAKI-1,> 100 µM (inactive)
same,GI50,CCRF-CEM,> 100 µM (inactive)
same,GI50,COLO 205,> 100 µM (inactive)
same,GI50,DU-145,> 100 µM (inactive)
same,GI50,EKVX,> 100 µM (inactive)
same,GI50,HCC 2998,> 100 µM (inactive)
same,GI50,HCT-116,> 100 µM (inactive)
same,GI50,HCT-15,> 100 µM
same,GI50,HL-60,> 100 µM (inactive)
same,GI50,HOP-62,> 100 µM (inactive)
same,GI50,HT-29,> 100 µM (inactive)
same,GI50,Hs-578T,> 100 µM (inactive)
same,GI50,K562,> 100 µM (inactive)
same,GI50,KM12,> 100 µM (inactive)
same,GI50,LOX IMVI,> 100 µM (inactive)
same,GI50,M14,> 100 µM (inactive)
same,GI50,MDA-MB-231,> 100 µM (inactive)
same,GI50,MDA-MB-435,> 100 µM (inactive)
same,GI50,MDA-N,> 100 µM (inactive)
same,GI50,MOLT-4,> 100 µM (inactive)
same,GI50,Malme-3M,> 100 µM (inactive)
same,GI50,NCI-H226,> 100 µM (inactive)
same,GI50,NCI-H23,> 100 µM (inactive)
same,GI50,NCI-H460,> 100 µM (inactive)
same,GI50,NCI-H522,> 100 µM (inactive)
same,GI50,NCI/ADR-RES,> 100 µM (inactive)
same,GI50,OVCAR-3,> 100 µM (inactive)
same,GI50,OVCAR-4,> 100 µM (inactive)
same,GI50,OVCAR-5,> 100 µM (inactive)
same,GI50,OVCAR-8,> 100 µM (inactive)
same,GI50,PC-3,> 100 µM (inactive)
same,GI50,RPMI-8226,> 100 µM (inactive)
same,GI50,RXF 393,> 100 µM (inactive)
same,GI50,SF-268,> 100 µM (inactive)
same,GI50,SF-295,> 100 µM (inactive)
same,GI50,SF-539,> 100 µM (inactive)
same,GI50,SK-MEL-28,> 100 µM (inactive)
same,GI50,SK-MEL-5,> 100 µM (inactive)
same,GI50,SK-OV-3,> 100 µM (inactive)
same,GI50,SN12C,> 100 µM (inactive)
same,GI50,SNB-19,> 100 µM (inactive)
same,GI50,SNB-75,> 100 µM (inactive)
same,GI50,SR,> 100 µM (inactive)
same,GI50,SW-620,> 100 µM (inactive)
same,GI50,T47D,> 100 µM (inactive)
same,GI50,TK-10,> 100 µM (inactive)
same,GI50,U-251,> 100 µM (inactive)
same,GI50,UACC-257,> 100 µM (inactive)
same,GI50,UACC-62,> 100 µM (inactive)
same,GI50,UO-31,> 100 µM (inactive)
COC(=O)NC(Nc1ccccn1)(C(F)(F)F)C(F)(F)F,GI50,786-0,> 100 µM (inactive)
same,GI50,A498,> 100 µM (inactive)
same,GI50,A549,> 100 µM (inactive)
same,GI50,ACHN,> 100 µM (inactive)
same,GI50,BT-549,> 100 µM (inactive)
same,GI50,CAKI-1,> 100 µM (inactive)
same,GI50,CCRF-CEM,> 100 µM (inactive)
same,GI50,DU-145,> 100 µM (inactive)
same,GI50,EKVX,> 100 µM (inactive)
same,GI50,HCC 2998,> 100 µM (inactive)
same,GI50,HCT-116,> 100 µM (inactive)
same,GI50,HCT-15,> 100 µM
same,GI50,HL-60,> 100 µM (inactive)
same,GI50,HOP-62,> 100 µM (inactive)
same,GI50,HOP-92,> 100 µM (inactive)
same,GI50,HT-29,> 100 µM (inactive)
same,GI50,Hs-578T,> 100 µM (inactive)
same,GI50,IGROV-1,> 100 µM (inactive)
same,GI50,K562,> 100 µM (inactive)
same,GI50,KM12,> 100 µM (inactive)
same,GI50,LOX IMVI,> 100 µM (inactive)
same,GI50,M14,> 100 µM (inactive)
same,GI50,MCF7,> 100 µM (inactive)
same,GI50,MDA-MB-231,> 100 µM (inactive)
same,GI50,MDA-MB-435,> 100 µM (inactive)
same,GI50,MDA-N,> 100 µM (inactive)
same,GI50,MOLT-4,> 100 µM (inactive)
same,GI50,Malme-3M,> 100 µM (inactive)
same,GI50,NCI-H226,> 100 µM (inactive)
same,GI50,NCI-H23,> 100 µM (inactive)
same,GI50,NCI-H460,> 100 µM (inactive)
same,GI50,NCI-H522,> 100 µM (inactive)
same,GI50,NCI/ADR-RES,> 100 µM (inactive)
same,GI50,OVCAR-3,> 100 µM (inactive)
same,GI50,OVCAR-5,> 100 µM (inactive)
same,GI50,OVCAR-8,> 100 µM (inactive)
same,GI50,RPMI-8226,> 100 µM (inactive)
same,GI50,RXF 393,29.9 µM (inactive)
same,GI50,SF-268,> 100 µM (inactive)
same,GI50,SF-539,> 100 µM (inactive)
same,GI50,SK-MEL-28,> 100 µM (inactive)
same,GI50,SK-MEL-2,> 100 µM (inactive)
same,GI50,SK-MEL-5,> 100 µM (inactive)
same,GI50,SK-OV-3,> 100 µM (inactive)
same,GI50,SNB-19,> 100 µM (inactive)
same,GI50,SNB-75,> 100 µM (inactive)
same,GI50,SR,> 100 µM (inactive)
same,GI50,SW-620,> 100 µM (inactive)
same,GI50,T47D,> 100 µM (inactive)
same,GI50,TK-10,> 100 µM (inactive)
same,GI50,U-251,> 100 µM (inactive)
same,GI50,UACC-257,> 100 µM (inactive)
same,GI50,UACC-62,> 100 µM (inactive)
same,GI50,UO-31,> 100 µM (inactive)
CNc1nc(N(C)C)nc(N(C)C)n1,GI50,BT-549,1320 µM (inactive)
same,GI50,DU-145,2790 µM (inactive)
same,GI50,Hs-578T,2100 µM (inactive)
same,GI50,M14,1210 µM (inactive)
same,GI50,MCF7,771 µM (inactive)
same,GI50,MDA-MB-231,955 µM (inactive)
same,GI50,MDA-MB-435,1110 µM (inactive)
same,GI50,MDA-N,855 µM (inactive)
same,GI50,NCI-H226,1120 µM (inactive)
same,GI50,NCI/ADR-RES,1140 µM (inactive)
same,GI50,PC-3,1580 µM (inactive)
same,GI50,T47D,578 µM (inactive)
Cc1nc2ccccc2c(=O)n1NC(=O)c1ccccn1,GI50,786-0,> 100 µM (inactive)
same,GI50,A498,> 100 µM (inactive)
same,GI50,A549,> 100 µM (inactive)
same,GI50,ACHN,> 100 µM (inactive)
same,GI50,BT-549,> 100 µM (inactive)
same,GI50,CCRF-CEM,> 100 µM (inactive)
same,GI50,COLO 205,> 100 µM (inactive)
same,GI50,DU-145,> 100 µM (inactive)
same,GI50,EKVX,> 100 µM (inactive)
same,GI50,HCC 2998,> 100 µM (inactive)
same,GI50,HCT-116,> 100 µM (inactive)
same,GI50,HL-60,> 100 µM (inactive)
same,GI50,HOP-62,> 100 µM (inactive)
same,GI50,HOP-92,> 100 µM (inactive)
same,GI50,HT-29,> 100 µM (inactive)
same,GI50,Hs-578T,> 100 µM (inactive)
same,GI50,IGROV-1,> 100 µM (inactive)
same,GI50,K562,> 100 µM (inactive)
same,GI50,KM12,> 100 µM (inactive)
same,GI50,LOX IMVI,> 100 µM (inactive)
same,GI50,M14,> 100 µM (inactive)
same,GI50,MDA-MB-231,> 100 µM (inactive)
same,GI50,MDA-MB-435,> 100 µM (inactive)
same,GI50,MDA-N,> 100 µM (inactive)
same,GI50,MOLT-4,> 100 µM (inactive)
same,GI50,Malme-3M,> 100 µM (inactive)
same,GI50,NCI-H23,> 100 µM (inactive)
same,GI50,NCI-H460,> 100 µM (inactive)
same,GI50,NCI-H522,> 100 µM (inactive)
same,GI50,NCI/ADR-RES,> 100 µM (inactive)
same,GI50,OVCAR-3,> 100 µM (inactive)
same,GI50,OVCAR-4,> 100 µM (inactive)
same,GI50,OVCAR-8,> 100 µM (inactive)
same,GI50,PC-3,> 100 µM (inactive)
same,GI50,RPMI-8226,> 100 µM (inactive)
same,GI50,RXF 393,> 100 µM (inactive)
same,GI50,SF-268,> 100 µM (inactive)
same,GI50,SF-295,> 100 µM (inactive)
same,GI50,SF-539,> 100 µM (inactive)
same,GI50,SK-MEL-28,> 100 µM (inactive)
same,GI50,SK-MEL-5,> 100 µM (inactive)
same,GI50,SK-OV-3,> 100 µM (inactive)
same,GI50,SN12C,> 100 µM (inactive)
same,GI50,SNB-19,> 100 µM (inactive)
same,GI50,SNB-75,35.7 µM (inactive)
same,GI50,SR,> 100 µM (inactive)
same,GI50,SW-620,> 100 µM (inactive)
same,GI50,T47D,> 100 µM (inactive)
same,GI50,TK-10,> 100 µM (inactive)
same,GI50,U-251,> 100 µM (inactive)
same,GI50,UACC-257,> 100 µM (inactive)
same,GI50,UACC-62,> 100 µM (inactive)
same,GI50,UO-31,> 100 µM (inactive)
